Measurements published in US9963463B2, “Urea-substituted indanes as P38 map kinase inhibitors” (TORRENT PHARMACEUTICALS LIMITED, priority 2014, dated 2018).

Each molecule was assayed against T1, purified recombinant human p38 alpha MAPK (Homo sapiens, UniProt Q16539) (assay: Inhibition of p38 alpha MAPK activity, TR-FRET kinase assay). Conditions: Concentration 1 μM; read-out: P38α Inhibition.
T1 construct: purchased Millipore, USA
T1 sequence (Q16539 whole entry): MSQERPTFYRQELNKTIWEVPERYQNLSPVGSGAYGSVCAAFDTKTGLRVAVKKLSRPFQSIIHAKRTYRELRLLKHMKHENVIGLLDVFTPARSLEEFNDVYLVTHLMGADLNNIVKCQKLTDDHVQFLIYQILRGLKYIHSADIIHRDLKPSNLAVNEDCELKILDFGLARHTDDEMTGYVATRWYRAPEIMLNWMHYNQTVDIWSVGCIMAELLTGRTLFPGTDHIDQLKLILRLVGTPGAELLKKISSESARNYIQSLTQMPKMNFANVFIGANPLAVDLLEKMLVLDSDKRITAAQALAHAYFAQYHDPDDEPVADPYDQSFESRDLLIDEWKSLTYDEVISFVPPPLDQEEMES
Type: biochemical
Description: Inhibition of p38 Alpha MAPK Activity: Time-Resolved Fluorescence Resonance Energy Transfer Kinase Standard Assay (TR-FRET Assay)
Compounds of present invention at various concentrations were premixed with DMSO. The experiment was initiated by mixing 0.5%-1.0% DMSO as vehicle/compounds with purified recombinant human p38 alpha MAPK (Millipore, USA) in the wells and 15 min incubation at room temperature. Thereafter, 30 nM of Biotinylated GST-ATF2 (Activation transcription Factor2) and 100 μM of ATP were added in to the wells containing reaction mixture, followed by reincubation for 60 minutes at RT. Reaction was terminated by addition of 10 mM of EDTA and detection reagent containing anti-phosphotheronine ATF2 antibody (PerkinElmer®, USA) labeled with europium chelate and APC (Allophycocyanin) labeled streptavidin, into the reaction mixture which was further incubated for 60 minutes at room temperature. The degree of phosphorylation of the substrate (GST-ATF2) was measured using Envision multimode reader (PerkinElmer®). Percentage inhibition of p38 kinase activity was calculated by determining ratio of specific europium 665 nm energy transfer signal to reference 615 nm signal.
`COc1c(NC(=O)Nc2ccc(OCCN3CCn4c(nnc4-c4ccccc4O)C3)c3c2CCC3)cc(C(C)(C)C)cc1NS(C)(=O)=O` [Compound 40, N-(5-tert-butyl-3-{[(7-{2-[3-(2-hydroxyphenyl)-5,6-dihydro[1,2,4]triazolo[4,3-a]pyrazin-7(8H)-yl]ethoxy}-2,3-dihydro-1H-inden-4-yl)carbamoyl]amino}-2-methoxyphenyl)methanesulfonamide] was tested, and the inhibition at 1 µM was 80 to 100%.
Molecule `CC(C)(C)c1cc(NC(=O)Nc2ccc(OCCN3CCn4c(nnc4-c4ccccc4O)C3)c3c2CCC3)n(-c2ccc(O)c(Cl)c2)n1` [Compound 26, 1-[3-tert-butyl-1-(3-chloro-4-hydroxyphenyl)-1H-pyrazol-5-yl]-3-(7-{2-[3-(2-hydroxyphenyl)-5,6-dihydro[1,2,4]triazolo[4,3-a]pyrazin-7(8H)-yl]ethoxy}-2,3-dihydro-1H-inden-4-yl)urea] has an inhibition at 1 µM of 80 to 100%.
`COc1ccc(-c2nnc3n2CCN(C(=O)COc2ccc(NC(=O)Nc4cc(C(C)(C)C)nn4-c4ccccc4)c4c2CCC4)C3)cc1Cl` [Compound 58, 1-(3-tert-butyl-1-phenyl-1H-pyrazol-5-yl)-3-(7-{2-[3-(3-chloro-4-methoxyphenyl)-5,6-dihydro[1,2,4]triazolo[4,3-a]pyrazin-7(8H)-yl]-2-oxoethoxy}-2,3-dihydro-1H-inden-4-yl)urea] was tested, and the inhibition at 1 µM was 40 to 60%.
Work on `Cc1ccc(-n2nc(C(C)(C)C)cc2NC(=O)Nc2ccc(OCCN3CCN(CC4CCC4)C(=O)C3)c3c2CCC3)cc1` [Compound 22, 1-[3-tert-butyl-1-(4-methylphenyl)-1H-pyrazol-5-yl]-3-(7-{2-[4-(cyclobutylmethyl)-3-oxopiperazin-1-yl]ethoxy}-2,3-dihydro-1H-inden-4-yl)urea] yielded an inhibition at 1 µM of 80 to 100%.
`CSc1ccccc1-c1nnc2n1CCN(C(=O)COc1ccc(NC(=O)Nc3cc(C(C)(C)C)nn3-c3ccccc3)c3c1CCC3)C2` [Compound 7, 1-(3-tert-butyl-1-phenyl-1H-pyrazol-5-yl)-3-[7-(2-{3-[2-(methylsulfanyl)phenyl]-5,6-dihydro[1,2,4]triazolo[4,3-a]pyrazin-7(8H)-yl}-2-oxoethoxy)-2,3-dihydro-1H-inden-4-yl]urea] showed an inhibition at 1 µM of 80 to 100%.
In the case of `Cc1ccccc1-n1nc(C(C)(C)C)cc1NC(=O)Nc1ccc(OCCN2CCN(CC3CC3)C(=O)C2)c2c1CCC2` [Compound 62, 1-[3-tert-butyl-1-(2-methylphenyl)-1H-pyrazol-5-yl]-3-(7-{2-[4-(cyclopropylmethyl)-3-oxopiperazin-1-yl]ethoxy}-2,3-dihydro-1H-inden-4-yl)urea], the inhibition at 1 µM is reported as 40 to 60%.
With `Cc1ccc(-n2nc(C(C)(C)C)cc2NC(=O)Nc2ccc(OCCN3CCN(c4ccccc4)C(=O)C3)c3c2CCC3)cc1` [Compound 19, 1-[3-tert-butyl-1-(4-methylphenyl)-1H-pyrazol-5-yl]-3-{7-[2-(3-oxo-4-phenylpiperazin-1-yl)ethoxy]-2,3-dihydro-1H-inden-4-yl}urea] the inhibition at 1 µM was 80 to 100%.
For `Cc1ccc(-n2nc(C(C)(C)C)cc2NC(=O)Nc2ccc(OCCN3CCn4c(nnc4-c4oc5ccccc5c4C)C3)c3c2CCC3)cc1` [Compound 69, 1-[3-tert-butyl-1-(4-methylphenyl)-1H-pyrazol-5-yl]-3-(7-{2-[3-(3-methyl-1-benzofuran-2-yl)-5,6-dihydro[1,2,4]triazolo[4,3-a]pyrazin-7(8H)-yl]ethoxy}-2,3-dihydro-1H-inden-4-yl)urea], the inhibition at 1 µM was 40 to 60%.
In the case of `COc1ccccc1-c1nnc2n1CCN(C(=O)COc1ccc(NC(=O)Nc3cc(C(C)(C)C)nn3-c3ccc(O)c(Cl)c3)c3c1CCC3)C2` [Compound 8, 1-[3-tert-butyl-1-(3-chloro-4-hydroxyphenyl)-1H-pyrazol-5-yl]-3-(7-{2-[3-(2-methoxyphenyl)-5,6-dihydro[1,2,4]triazolo[4,3-a]pyrazin-7(8H)-yl]-2-oxoethoxy}-2,3-dihydro-1H-inden-4-yl)urea], the inhibition at 1 µM is reported as 80 to 100%.
With `Cc1ccc(-n2nc(C(C)(C)C)cc2NC(=O)Nc2ccc(OCCN3CCn4c(nnc4-c4cccc(Cl)c4O)C3)c3c2CCC3)cc1` [Compound 29, 1-[3-tert-butyl-1-(4-methylphenyl)-1H-pyrazol-5-yl]-3-(7-{2-[3-(3-chloro-2-hydroxyphenyl)-5,6-dihydro[1,2,4]triazolo[4,3-a]pyrazin-7(8H)-yl]ethoxy}-2,3-dihydro-1H-inden-4-yl)urea] the inhibition at 1 µM was 80 to 100%.
`COc1c(NC(=O)Nc2ccc(OCCCN3CCN(CC4CC4)C(=O)C3)c3c2CCC3)cc(C(C)(C)C)cc1NS(C)(=O)=O` [Compound 41, N-(5-tert-butyl-3-{[(7-{3-[4-(cyclopropylmethyl)-3-oxopiperazin-1-yl]propoxy}-2,3-dihydro-1H-inden-4-yl)carbamoyl]amino}-2-methoxyphenyl) methanesulfonamide] gave an inhibition at 1 µM of 60 to 80%.
For `COc1c(NC(=O)Nc2ccc(OCCN3CCn4c(nnc4-c4cc(Cl)ccc4O)C3)c3c2CCC3)cc(C(C)(C)C)cc1NS(C)(=O)=O` [Compound 48, N-(5-tert-butyl-3-{[(7-{2-[3-(5-chloro-2-hydroxyphenyl)-5,6-dihydro[1,2,4]triazolo[4,3-a]pyrazin-7(8H)-yl]ethoxy}-2,3-dihydro-1H-inden-4-yl)carbamoyl]amino}-2-methoxyphenyl)methanesulfonamide], the inhibition at 1 µM was 80 to 100%.
For `CCCSc1ccccc1-c1nnc2n1CCN(CCOc1ccc(NC(=O)Nc3cc(C(C)(C)C)nn3-c3ccc(O)c(Cl)c3)c3c1CCC3)C2` [Compound 35, 1-[3-tert-butyl-1-(3-chloro-4-hydroxyphenyl)-1H-pyrazol-5-yl]-3-[7-(2-{3-[2-(propylsulfanyl)phenyl]-5,6-dihydro[1,2,4]triazolo[4,3-a]pyrazin-7(8H)-yl}ethoxy)-2,3-dihydro-1H-inden-4-yl]urea], the inhibition at 1 µM was 80 to 100%.
With `CSc1ccccc1-c1nnc2n1CCN(C(=O)COc1ccc(NC(=O)Nc3cc(C(C)(C)C)nn3-c3ccc(C)cc3)c3c1CCC3)C2` [Compound 10, 1-[3-tert-butyl-1-(4-methylphenyl)-1H-pyrazol-5-yl]-3-[7-(2-{3-[2-(methylsulfanyl)phenyl]-5,6-dihydro[1,2,4]triazolo[4,3-a]pyrazin-7(8H)-yl}-2-oxoethoxy)-2,3-dihydro-1H-inden-4-yl]urea] the inhibition at 1 µM was 80 to 100%.
`CSc1ccccc1-c1nnc2n1CCN(C(=O)COc1ccc(NC(=O)Nc3cc(C(C)(C)C)nn3-c3ccc(O)c(Cl)c3)c3c1CCC3)C2` [Compound 9, 1-[3-tert-butyl-1-(3-chloro-4-hydroxyphenyl)-1H-pyrazol-5-yl]-3-[7-(2-{3-[2-(methylsulfanyl)phenyl]-5,6-dihydro[1,2,4]triazolo[4,3-a]pyrazin-7(8H)-yl}-2-oxoethoxy)-2,3-dihydro-1H-inden-4-yl]urea] was tested, and the inhibition at 1 µM was 80 to 100%.
With `CC(=O)Nc1cc2c(s1)CCN(C(=O)COc1ccc(NC(=O)Nc3cc(C(C)(C)C)nn3-c3ccc(C)cc3)c3c1CCC3)C2` [Compound 52, N-[5-({[7-({[3-tert-butyl-1-(4-methylphenyl)-1H-pyrazol-5-yl]carbamoyl}amino)-2,3-dihydro-1H-inden-4-yl]oxy}acetyl)-4,5,6,7-tetrahydrothieno[3,2-c]pyridin-2-yl] acetamide] the inhibition at 1 µM was 60 to 80%.
With `CCCCOc1ccccc1-c1nnc2n1CCN(CCOc1ccc(NC(=O)Nc3cc(C(C)(C)C)nn3-c3ccc(C)cc3)c3c1CCC3)C2` [Compound 32, 1-(7-{2-[3-(2-butoxyphenyl)-5,6-dihydro[1,2,4]triazolo[4,3-a]pyrazin-7(8H)-yl]ethoxy}-2,3-dihydro-1H-inden-4-yl)-3-[3-tert-butyl-1-(4-methylphenyl)-1H-pyrazol-5-yl]urea] the inhibition at 1 µM was 80 to 100%.
